Reference: the supplement of paper PMC6045584
± gives the standard deviation of the averaged measurements.

How the values were obtained:
[1] = compound: CCN(CC)CCCCNc1ncc2cc(-c3cc(OC)cc(OC)c3)c(NC(=O)NC(C)(C)C)nc2n1; experiment: surviving fraction relative to DMSO-only wells; higher = less growth inhibition; details: exposure time: 5 days
Procedure, shortened: (§1)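 Five days of continuous inhibitor exposure, at 0.5, 1, 5, 10, 50, 100, 500 and 1000 nM, followed a 24-hour period after log-phase tumour cell lines were seeded at 250–500 cells per well in 384-well plates. Surviving fraction was derived from CellTiter-Glo luminescence relative to the median of DMSO-only wells. Plates were read after 10 minutes at room temperature, and lines screened three times were kept only if replicate Pearson r >0.7 and median Z' >0.3.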

SALINOMYCIN = compound: CC[C@@H](C(=O)[C@@H](C)[C@@H](O)[C@H](C)[C@@H]1O[C@@H]([C@@H](CC)C(=O)O)CC[C@@H]1C)[C@H]1O[C@]2(C=C[C@@H](O)[C@]3(CC[C@@](C)([C@H]4CC[C@](O)(CC)[C@H](C)O4)O3)O2)[C@H](C)C[C@@H]1C [SALINOMYCIN]; experiment: as above; details: exposure time: 5 days
Procedure, shortened: as §1

HUO3N1 BONE
surviving fraction ([1]; 0.5 nM): 0.996 ± 0.074 | surviving fraction ([1]; 1 nM): 0.993 ± 0.047 | surviving fraction ([1]; 5 nM): 1.04 ± 0.052 | surviving fraction ([1]; 10 nM): 0.999 ± 0.043 | surviving fraction ([1]; 50 nM): 0.9503 ± 0.0051 | surviving fraction ([1]; 100 nM): 0.906 ± 0.055 | surviving fraction ([1]; 500 nM): 0.727 ± 0.04 | surviving fraction ([1]; 1000 nM): 0.69 ± 0.013 | surviving fraction (SALINOMYCIN; 0.5 nM): 1.01 ± 0.052 | surviving fraction (SALINOMYCIN; 1 nM): 0.984 ± 0.073 | surviving fraction (SALINOMYCIN; 5 nM): 1.01 ± 0.04 | surviving fraction (SALINOMYCIN; 10 nM): 1.02 ± 0.071 | surviving fraction (SALINOMYCIN; 50 nM): 0.844 ± 0.012 | surviving fraction (SALINOMYCIN; 100 nM): 0.51 ± 0.023 | surviving fraction (SALINOMYCIN; 500 nM): 0.167 ± 0.0067 | surviving fraction (SALINOMYCIN; 1000 nM): 0.151 ± 0.0097

JIMT1 BREAST
surviving fraction ([1]; 0.5 nM): 0.964 ± 0.028 | surviving fraction ([1]; 1 nM): 0.951 ± 0.04 | surviving fraction ([1]; 5 nM): 0.967 ± 0.054 | surviving fraction ([1]; 10 nM): 1.01 ± 0.037 | surviving fraction ([1]; 50 nM): 1.02 ± 0.011 | surviving fraction ([1]; 100 nM): 1.03 ± 0.042 | surviving fraction ([1]; 500 nM): 0.989 ± 0.031 | surviving fraction ([1]; 1000 nM): 1.02 ± 0.025 | surviving fraction (SALINOMYCIN; 0.5 nM): 0.96 ± 0.014 | surviving fraction (SALINOMYCIN; 1 nM): 0.977 ± 0.021 | surviving fraction (SALINOMYCIN; 5 nM): 0.979 ± 0.021 | surviving fraction (SALINOMYCIN; 10 nM): 0.999 ± 0.021 | surviving fraction (SALINOMYCIN; 50 nM): 0.988 ± 0.033 | surviving fraction (SALINOMYCIN; 100 nM): 0.95 ± 0.013 | surviving fraction (SALINOMYCIN; 500 nM): 0.51 ± 0.024 | surviving fraction (SALINOMYCIN; 1000 nM): 0.356 ± 0.02

JURKAT HAEMATOPOIETIC AND LYMPHOID TISSUE
surviving fraction ([1]; 0.5 nM): 1.03 ± 0.042 | surviving fraction ([1]; 1 nM): 1.08 ± 0.015 | surviving fraction ([1]; 5 nM): 1.04 ± 0.022 | surviving fraction ([1]; 10 nM): 1.055 ± 0.0052 | surviving fraction ([1]; 50 nM): 1 ± 0.039 | surviving fraction ([1]; 100 nM): 1.05 ± 0.02 | surviving fraction ([1]; 500 nM): 1.02 ± 0.021 | surviving fraction ([1]; 1000 nM): 1.07 ± 0.021 | surviving fraction (SALINOMYCIN; 0.5 nM): 1.08 ± 0.011 | surviving fraction (SALINOMYCIN; 1 nM): 1.09 ± 0.028 | surviving fraction (SALINOMYCIN; 5 nM): 1.03 ± 0.02 | surviving fraction (SALINOMYCIN; 10 nM): 1.04 ± 0.042 | surviving fraction (SALINOMYCIN; 50 nM): 0.815 ± 0.024 | surviving fraction (SALINOMYCIN; 100 nM): 0.673 ± 0.018 | surviving fraction (SALINOMYCIN; 500 nM): 0.23 ± 0.005 | surviving fraction (SALINOMYCIN; 1000 nM): 0.101 ± 0.0053

KPD BONE
surviving fraction ([1]; 0.5 nM): 0.978 ± 0.07 | surviving fraction ([1]; 1 nM): 1.02 ± 0.033 | surviving fraction ([1]; 5 nM): 1 ± 0.049 | surviving fraction ([1]; 10 nM): 1.01 ± 0.12 | surviving fraction ([1]; 50 nM): 1.02 ± 0.039 | surviving fraction ([1]; 100 nM): 0.97 ± 0.058 | surviving fraction ([1]; 500 nM): 0.925 ± 0.025 | surviving fraction ([1]; 1000 nM): 0.884 ± 0.058 | surviving fraction (SALINOMYCIN; 0.5 nM): 0.931 ± 0.046 | surviving fraction (SALINOMYCIN; 1 nM): 0.942 ± 0.013 | surviving fraction (SALINOMYCIN; 5 nM): 1 ± 0.064 | surviving fraction (SALINOMYCIN; 10 nM): 0.979 ± 0.018 | surviving fraction (SALINOMYCIN; 50 nM): 0.93 ± 0.032 | surviving fraction (SALINOMYCIN; 100 nM): 0.7467 ± 0.005 | surviving fraction (SALINOMYCIN; 500 nM): 0.235 ± 0.015 | surviving fraction (SALINOMYCIN; 1000 nM): 0.128 ± 0.016

LM7 BONE
surviving fraction ([1]; 0.5 nM): 0.989 ± 0.039 | surviving fraction ([1]; 1 nM): 0.966 ± 0.075 | surviving fraction ([1]; 5 nM): 1.08 ± 0.13 | surviving fraction ([1]; 10 nM): 1.07 ± 0.069 | surviving fraction ([1]; 50 nM): 1.01 ± 0.043 | surviving fraction ([1]; 100 nM): 1.13 ± 0.24 | surviving fraction ([1]; 500 nM): 0.869 ± 0.075 | surviving fraction ([1]; 1000 nM): 0.739 ± 0.11 | surviving fraction (SALINOMYCIN; 0.5 nM): 1.01 ± 0.021 | surviving fraction (SALINOMYCIN; 1 nM): 1.01 ± 0.068 | surviving fraction (SALINOMYCIN; 5 nM): 1.06 ± 0.041 | surviving fraction (SALINOMYCIN; 10 nM): 1.11 ± 0.065 | surviving fraction (SALINOMYCIN; 50 nM): 1.05 ± 0.053 | surviving fraction (SALINOMYCIN; 100 nM): 1.09 ± 0.051 | surviving fraction (SALINOMYCIN; 500 nM): 0.588 ± 0.04 | surviving fraction (SALINOMYCIN; 1000 nM): 0.397 ± 0.02

LNCAP PROSTATE
surviving fraction ([1]; 0.5 nM): 0.864 ± 0.066 | surviving fraction ([1]; 1 nM): 0.878 ± 0.1 | surviving fraction ([1]; 5 nM): 0.7647 ± 0.0046 | surviving fraction ([1]; 10 nM): 0.922 ± 0.16 | surviving fraction ([1]; 50 nM): 0.898 ± 0.11 | surviving fraction ([1]; 100 nM): 0.934 ± 0.11 | surviving fraction ([1]; 500 nM): 0.933 ± 0.11 | surviving fraction ([1]; 1000 nM): 1.03 ± 0.026 | surviving fraction (SALINOMYCIN; 0.5 nM): 0.833 ± 0.096 | surviving fraction (SALINOMYCIN; 1 nM): 0.884 ± 0.07 | surviving fraction (SALINOMYCIN; 5 nM): 0.818 ± 0.18 | surviving fraction (SALINOMYCIN; 10 nM): 0.815 ± 0.11 | surviving fraction (SALINOMYCIN; 50 nM): 0.643 ± 0.01 | surviving fraction (SALINOMYCIN; 100 nM): 0.215 ± 0.013 | surviving fraction (SALINOMYCIN; 500 nM): 0.0563 ± 0.005 | surviving fraction (SALINOMYCIN; 1000 nM): 0.0493 ± 0.0031

MCF7 BREAST
surviving fraction ([1]; 0.5 nM): 0.884 ± 0.024 | surviving fraction ([1]; 1 nM): 0.868 ± 0.063 | surviving fraction ([1]; 5 nM): 0.864 ± 0.03 | surviving fraction ([1]; 10 nM): 0.877 ± 0.068 | surviving fraction ([1]; 50 nM): 0.878 ± 0.04 | surviving fraction ([1]; 100 nM): 0.861 ± 0.038 | surviving fraction ([1]; 500 nM): 0.878 ± 0.042 | surviving fraction ([1]; 1000 nM): 0.908 ± 0.069 | surviving fraction (SALINOMYCIN; 0.5 nM): 0.853 ± 0.048 | surviving fraction (SALINOMYCIN; 1 nM): 0.8602 ± 0.005 | surviving fraction (SALINOMYCIN; 5 nM): 0.821 ± 0.025 | surviving fraction (SALINOMYCIN; 10 nM): 0.815 ± 0.034 | surviving fraction (SALINOMYCIN; 50 nM): 0.941 ± 0.02 | surviving fraction (SALINOMYCIN; 100 nM): 0.908 ± 0.055 | surviving fraction (SALINOMYCIN; 500 nM): 0.677 ± 0.014 | surviving fraction (SALINOMYCIN; 1000 nM): 0.348 ± 0.028

MDAMB134 BREAST
surviving fraction ([1]; 0.5 nM): 1 ± 0.079 | surviving fraction ([1]; 1 nM): 0.807 ± 0.069 | surviving fraction ([1]; 5 nM): 0.863 ± 0.03 | surviving fraction ([1]; 10 nM): 0.977 ± 0.23 | surviving fraction ([1]; 50 nM): 0.872 ± 0.073 | surviving fraction ([1]; 100 nM): 0.902 ± 0.069 | surviving fraction ([1]; 500 nM): 0.829 ± 0.064 | surviving fraction ([1]; 1000 nM): 0.873 ± 0.05 | surviving fraction (SALINOMYCIN; 0.5 nM): 1.05 ± 0.26 | surviving fraction (SALINOMYCIN; 1 nM): 1.01 ± 0.22 | surviving fraction (SALINOMYCIN; 5 nM): 0.995 ± 0.0042 | surviving fraction (SALINOMYCIN; 10 nM): 1.08 ± 0.015 | surviving fraction (SALINOMYCIN; 50 nM): 1.02 ± 0.069 | surviving fraction (SALINOMYCIN; 100 nM): 1.05 ± 0.021 | surviving fraction (SALINOMYCIN; 500 nM): 1.32 ± 0.041 | surviving fraction (SALINOMYCIN; 1000 nM): 1.04 ± 0.037

MDAMB157 BREAST
surviving fraction ([1]; 0.5 nM): 0.85 ± 0.13 | surviving fraction ([1]; 1 nM): 0.935 ± 0.05 | surviving fraction ([1]; 5 nM): 0.898 ± 0.031 | surviving fraction ([1]; 10 nM): 0.993 ± 0.026 | surviving fraction ([1]; 50 nM): 0.856 ± 0.03 | surviving fraction ([1]; 100 nM): 0.68 ± 0.045 | surviving fraction ([1]; 500 nM): 0.467 ± 0.033 | surviving fraction ([1]; 1000 nM): 0.515 ± 0.0087 | surviving fraction (SALINOMYCIN; 0.5 nM): 0.881 ± 0.017 | surviving fraction (SALINOMYCIN; 1 nM): 0.904 ± 0.042 | surviving fraction (SALINOMYCIN; 5 nM): 0.985 ± 0.073 | surviving fraction (SALINOMYCIN; 10 nM): 0.99 ± 0.044 | surviving fraction (SALINOMYCIN; 50 nM): 0.982 ± 0.078 | surviving fraction (SALINOMYCIN; 100 nM): 0.819 ± 0.054 | surviving fraction (SALINOMYCIN; 500 nM): 0.217 ± 0.043 | surviving fraction (SALINOMYCIN; 1000 nM): 0.139 ± 0.011

MDAMB231 BREAST
surviving fraction ([1]; 0.5 nM): 0.974 ± 0.03 | surviving fraction ([1]; 1 nM): 0.975 ± 0.026 | surviving fraction ([1]; 5 nM): 0.9813 ± 0.0094 | surviving fraction ([1]; 10 nM): 1.01 ± 0.02 | surviving fraction ([1]; 50 nM): 0.995 ± 0.026 | surviving fraction ([1]; 100 nM): 1.01 ± 0.034 | surviving fraction ([1]; 500 nM): 1.01 ± 0.035 | surviving fraction ([1]; 1000 nM): 0.983 ± 0.022 | surviving fraction (SALINOMYCIN; 0.5 nM): 0.9877 ± 0.006 | surviving fraction (SALINOMYCIN; 1 nM): 0.9962 ± 0.0061 | surviving fraction (SALINOMYCIN; 5 nM): 0.993 ± 0.011 | surviving fraction (SALINOMYCIN; 10 nM): 0.983 ± 0.018 | surviving fraction (SALINOMYCIN; 50 nM): 1 ± 0.057 | surviving fraction (SALINOMYCIN; 100 nM): 0.953 ± 0.016 | surviving fraction (SALINOMYCIN; 500 nM): 0.559 ± 0.011 | surviving fraction (SALINOMYCIN; 1000 nM): 0.425 ± 0.0083
